Laboratory results: patent publication US4226875A, “Novel spiro-oxazolidinediones” (Pfizer Inc., priority 1979, dated 1980)

Columns and labels:
[1] = system: partially purified aldose reductase enzyme obtained from calf lens; experiment: inhibition of aldose reductase enzyme activity (procedure of US 3,821,383 / Hayman et al.); format: biochemical; conditions: compound concentration 10^-4 M
Text: (§1) The activity of the compounds of the present invention as agents for the control of chronic diabetic complications may be determined by a number of standard biological or pharmacological tests. Suitable tests include (1) measuring their ability to inhibit the enzyme activity of isolated aldose reductase; (2) measuring their ability to reduce or inhibit sorbitol accumulation in the sciatic nerve of acutely streptozotocinized (i.e. diabetic) rats; (3) measuring their ability to reverse already elevated sorbitol levels in the sciatic nerve and lens of chronic streptozotocin-induced diabetic rats; (4) measuring their ability to prevent or inhibit galactitol formation in the lens of acutely galactosemic rats; and (5) measuring their ability to delay cataract formation and reduce the severity of lens opacities in chronic galactosemic rats. Suitable experimental procedures are described in U.S. Pat. No. 3,821,383 and the references cited therein.
(§2) The substrate employed was partially purified aldose reductase enzyme obtained from calf lens. […] Thus, for example, the compounds may be tested for their ability to reduce or inhibit sorbitol accumulation in the sciatic nerve of streptozotocinized (i.e., diabetic) rats by the procedure essentially described in U.S. Pat. No. 3,821,383. The amount of sorbitol accumulation in the sciatic nerves is measured 27 hours after induction of diabetes. […]

[2] = system: sorbitol accumulation in the sciatic nerve of streptozotocinized (i.e., diabetic) rats; experiment: sorbitol accumulation in the sciatic nerve of streptozotocinized (diabetic) rats; format: in vivo; conditions: oral; 50 mg/kg body weight; preliminary tests
Text: as §1, §2

| percent inhibition of enzyme activity [1] [%] | Structure (SMILES) | activity in reducing or inhibiting sorbitol accumulation in the sciatic nerve [2] |
| --- | --- | --- |
| 81 | O=C1NC(=O)C2(CCc3ccccc32)O1 (stereo not drawn) [Spiro-[indane(1,5')oxazolidine]-2',4'-dione] |  |
| 75 | O=C1NC(=O)C2(CCCc3ccccc32)O1 (stereo not drawn) [1',2',3',4'-tetrahydro-spiro-[oxazolididine(5,1')naphthalene]-2,4-dione] | no significant activity |
